What was measured:
[1] = molecular target: T1, Farnesoid X receptor (FXR) (Homo sapiens, UniProt Q96RI1); assay: AlphaScreen coactivator recruitment with purified FXR-LBD; luciferase reporter; assay type: biochemical
T1 construct: gene NR1H4; 6His-FXR-LBD (residues 243-472aa)
T1 sequence (Q96RI1 257-486): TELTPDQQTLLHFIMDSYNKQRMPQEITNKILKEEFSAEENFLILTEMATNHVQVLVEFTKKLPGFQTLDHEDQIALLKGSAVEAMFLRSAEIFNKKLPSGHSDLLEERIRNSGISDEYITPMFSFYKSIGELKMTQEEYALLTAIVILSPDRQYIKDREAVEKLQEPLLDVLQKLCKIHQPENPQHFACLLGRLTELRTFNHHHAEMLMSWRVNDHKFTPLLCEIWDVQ

[2] = molecular target: T1, Farnesoid X receptor (FXR); assay: AlphaScreen coactivator recruitment with purified FXR-LBD; also luciferase reporter (EC50 […]) and M265I/Y369F mutagenesis; assay type: binding

CC1=CCC[C@@H]2[C@@](C)(CC/C(C)=C/CO)[C@H](C)CC[C@@]12C [kolavenol]
AlphaScreen coactivator recruitment with purified FXR-LBD; luciferase reporter [1]: motifs bound to FXR-LBD in response to 2-oxokolavenol, 2-oxokolavelool, kolavenol, or OCA in the AlphaScreen assay

CC1=CC(=O)C[C@@H]2[C@@](C)(CC/C(C)=C/CO)[C@H](C)CC[C@@]12C [2-oxokolavenol]
EC50 [2]: ~3.7 µM
